IC50 data for eight molecules are collected here from patent US8058263B2, “Substituted 2-phenyl-pyridine derivatives” (Actelion Pharmaceuticals Ltd, priority 2008, dated 2011).

SMILES strings stand for the structures.

T1 sequence (Q9H244 whole entry): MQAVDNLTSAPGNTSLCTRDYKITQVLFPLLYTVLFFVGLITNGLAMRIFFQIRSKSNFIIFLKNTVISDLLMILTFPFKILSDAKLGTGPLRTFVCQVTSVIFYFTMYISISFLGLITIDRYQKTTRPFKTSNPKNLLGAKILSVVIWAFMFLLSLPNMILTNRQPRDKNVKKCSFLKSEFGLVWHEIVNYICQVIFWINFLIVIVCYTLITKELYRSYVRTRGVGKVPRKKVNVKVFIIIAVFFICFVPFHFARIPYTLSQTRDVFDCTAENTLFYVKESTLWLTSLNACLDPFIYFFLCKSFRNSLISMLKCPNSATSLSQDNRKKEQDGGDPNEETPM

The assay has as its target T1, human P2Y12 receptor (Homo sapiens, UniProt Q9H244).
T1 construct: expressed in transfected cells; host or cells: Chinese Hamster Ovary (CHO) cells
Nature of the assay: P2Y12 receptor binding assay. The conditions noted are these: CHO cells with recombinant expression of the human P2Y12 receptor; tritium-labeled 2-methyl-S-ADP; 2 hours at RT. How it is done: P2Y12 Receptor Binding Assay
Chinese Hamster Ovary (CHO) cells with recombinant expression of the human P2Y12 receptor were cultured in 24 well cell-culture plates. Cells were washed three times with binding buffer (50 mM Tris pH 7.4, 100 mM NaCl, 1 mM EDTA, 0.5% BSA). The cells were then incubated with 0.5 mL per well binding buffer containing tritium-labeled 2-methyl-thio-adenosine 5′-diphosphate (2-methyl-S-ADP) (between 100,000 and 300,000 dpm per well) and various concentrations of test compounds. After incubation at RT for 2 hours, cells were washed three times with binding buffer. Then, cells were solubilized by addition of 0.5 mL solubilization buffer (SDS, NaOH, EDTA). The content of each well was then transferred into beta-counter vials and 2.0 ml of Ultima Gold Scintillation liquid was added.
A word on the IC50: it is the midpoint of a concentration-inhibition curve. For the molecule `CCCCOC(=O)N1CCN(C(=O)C(NC(=O)c2cc(N3CC[C@H](OC)C3)cc(-c3ccccc3)n2)P(=O)(O)O)CC1` (stereo partly drawn) [Example 12, 4-(-2-{[4-((S)-3-methoxy-pyrrolidin-1-yl)-6-phenyl-pyridine-2-carbonyl]-amino}-2-phosphono-acetyl)-piperazine-1-carboxylic acid butyl ester], the IC50 was 186 nM.

For the molecule `CCCCOC(=O)N1CCN(C(=O)[C@@H](CCCP(=O)(O)O)NC(=O)c2cc(N3CC[C@H](OC)C3)cc(-c3ccccc3)n2)CC1` [Example 14, 4-((R)-2-{[4-((S)-3-methoxy-pyrrolidin-1-yl)-6-phenyl-pyridine-2-carbonyl]-amino}-5-phosphono-pentanoyl)-piperazine-1-carboxylic acid butyl ester], the IC50 came out at 30 nM. Next, `CCCCOC(=O)N1CCN(C(=O)[C@H](CP(=O)(O)O)NC(=O)c2cc(-c3ccccc3)cc(-c3ccc(F)cc3)n2)CC1` [Example 17, 4-((R)-2-{[6-(4-fluoro-phenyl)-4-phenyl-pyridine-2-carbonyl]-amino}-3-phosphono-propionyl)-piperazine-1-carboxylic acid butyl ester]: 19 nM; `CCCCOC(=O)N1CCN(C(=O)[C@H](CP(=O)(O)O)NC(=O)c2cc([C@H]3C[C@@H]3CO)cc(-c3ccccc3)n2)CC1` [Example 20, 4-((R)-2-{[4-((1S,2S)-2-hydroxymethyl-cyclopropyl)-6-phenyl-pyridine-2-carbonyl]-amino}-3-phosphono-propionyl)-piperazine-1-carboxylic acid butyl ester]: 5 nM; `CCOC(=O)N1CCN(C(=O)[C@H](Cc2ccc(P(=O)(O)O)cc2)NC(=O)c2cc(N3CC[C@H](OC)C3)cc(-c3ccccc3)n2)CC1` [Example 24, 4-[(S)-2-{[4-((S)-3-methoxy-pyrrolidin-1-yl)-6-phenyl-pyridine-2-carbonyl]-amino}-3-(4-phosphono-phenyl)-propionyl]-piperazine-1-carboxylic acid ethyl ester]: 1 nM.

Regarding `CCCCOC(=O)N1CCN(C(=O)[C@H](CP(=O)(O)O)NC(=O)c2cc(NC3CC3)cc(-c3ccccc3)n2)CC1` [Example 31, 4-{(R)-2-[(4-cyclopropylamino-6-phenyl-pyridine-2-carbonyl)-amino]-3-phosphono-propionyl}-piperazine-1-carboxylic acid butyl ester], the IC50 came out at 4 nM. With `CCCCOC(=O)N1CCN(C(=O)[C@H](CP(=O)(O)O)NC(=O)c2cc(OCCOC)cc(-c3ccccc3)n2)CC1` [Example 36, 4-((R)-2-{[4-(2-methoxy-ethoxy)-6-phenyl-pyridine-2-carbonyl]-amino}-3-phosphono-propionyl)-piperazine-1-carboxylic acid butyl ester], the 50% inhibitory concentration (IC50) worked out at 2 nM. Then `CCCCOC(=O)N1CCN(C(=O)[C@H](CP(=O)(OCOC(C)=O)OCOC(C)=O)NC(=O)c2cc(N3CC[C@H](OC)C3)cc(-c3ccccc3)n2)CC1` [Example 39, 4-((R)-3-(Bis-acetoxymethoxy-phosphoryl)-2-{[4-((S)-3-methoxy-pyrrolidin-1-yl)-6-phenyl-pyridine-2-carbonyl]-amino}-propionyl)-piperazine-1-carboxylic acid butyl ester], with 3 nM.
